This note sets out measurements from US10144713B1, “Bis-cyclic guanidines as antibacterial agents” (UNIVERSITY OF SOUTH FLORIDA, priority 2017, dated 2018).

Common to all, as to assay type: cell-based
The test system of one data set is E. coli (ATCC 25922). Briefly: MIC against E. coli. As to conditions: Gram −, 16 h, 37° C.; for MIC: Escherichia coli, ATCC25922. On the procedure: (§1) Minimum Inhibitory Concentrations (MICs) Against Bacteria.
(§2) The antimicrobial activity of the compounds was tested on the following six bacteria strains: K. pneumoniae (ATCC 13383), P. aeruginosa (ATCC27853), E. coli (ATCC 25922), vancomycin-resistant Enterococcus faecalis(ATCC 700802), Methicillin-resistant S. aureus (MRSA, ATCC 33591), Methicillin-resistant S. epidermidis (MRSE, RP62A). The procedures were followed as reported previously (Hancock et al., Immunobiology 2006, 211, 315-322). Briefly, a single colony of each bacterium was inoculated in 3 mL TSB medium and incubated overnight at 37° C. Then the bacteria culture was diluted at 1:100 and the bacteria were allowed to grow to mid-logarithmic phase. Next, 50 μL of 2-fold serial dilutions of compounds (0.1-25 μg/mL) were added the 96-well plate containing aliquots of 50 μL of bacteria suspension (1×10^6 CFU/mL) in each well. The mixture was incubated at 37° C. for 16 h, and their absorption at 600 nm wavelength was read on a Biotek Synergy HT microtiter plate reader. […] The experiments were repeated at least three times with duplicates each time. HC50 means the concentration causing 50% hemolysis.

Data set [1] relates to P. aeruginosa (ATCC27853). Briefly: MIC against P. aeruginosa. As to conditions: for MIC: Pseudomonas aeruginosa, ATCC27853. As for the experimental part: as §1, §2
For data set [2], the system named is K. pneumoniae (ATCC 13383). Briefly: MIC against K. pneumoniae. To be noted: Gram −, 16 h, 37° C.; for MIC: Klebsiella pneumoniae, ATCC13383. On the procedure: as §1, §2
Data set [3] has as its system Methicillin-resistant S. aureus (MRSA, ATCC 33591). Kind of data set: MIC against MRSA. As to conditions: Gram +, 16 h, 37° C.; for MIC: Staphylococcus aureus. On the procedure: as §1, §2
Data set [4] concerns Methicillin-resistant S. epidermidis (MRSE, RP62A). Kind of data set: MIC against MRSE. To be noted: Gram +, 16 h, 37° C.; for MIC: Staphylococcus epidermidis, MRSE. As for the experimental part: as §1, §2
Data set [5] deals with vancomycin-resistant Enterococcus faecalis (ATCC 700802). Kind of data set: MIC against VRE. As to conditions: Gram +; 16 h, 37° C. On the procedure:
as §1, §2

Data set [6] relates to human red blood cells (hRBCs). Briefly: Hemolytic assay. To be noted: for Hemolysis (HC50): concentration causing 50% hemolysis, hRBCs, 37° C., 1 h. On the procedure: The freshly drawn, K2EDTA treated human red blood cells (hRBCs) were washed with 1×PBS buffer, and centrifuged at 3500 rpm for 10 min. The step was repeated until the supernatant became clear. The supernatant was removed, and the RBCs were diluted into 5% v/v suspension. 50 μL of the suspension was incubated with 50 μL of compounds of different concentrations at 37° C. for 1 h. The mixture was centrifuged at 3500 rpm for 10 min. Subsequently, to 30 μL of the supernatant 100 μL PBS was added, and the absorbance of the mixture at 540 nm was read on a Biotek Synergy HT plate reader. The positive control was 2% Triton X-100, and the negative control was 1×PBS alone. The hemolysis activity was calculated by the formula % hemolysis=(Abssample−AbsPBS)/(AbsTriton−AbsPBS)×100%. The experiment was repeated at least three times with duplicates each time.

The test system of data set [7] is six bacteria strains (K. pneumoniae, P. aeruginosa, E. coli, VRE, MRSA, MRSE). Kind of data set: Antimicrobial activity on the panel of six bacteria strains. As for the experimental part:
as §1, §2

Consider `CCCCCCCCCC(=O)N[C@@H](Cc1c[nH]c2ccccc12)C(=O)N[C@H](CC(N)=O)C(=O)N[C@@H](CC(=O)O)C(=O)N[C@@H]1C(=O)NCC(=O)N[C@@H](CCCN)C(=O)N[C@@H](CC(=O)O)C(=O)N[C@H](C)C(=O)N[C@@H](CC(=O)O)C(=O)NCC(=O)N[C@H](CO)C(=O)N[C@@H]([C@H](C)CC(=O)O)C(=O)N[C@@H](CC(=O)c2ccccc2N)C(=O)O[C@@H]1C` [Daptomycin, reference compound], for which the MIC in the data set on E. coli (ATCC 25922) is more than 50 µg/mL; in data set [1] (Gram −, 16 h, 37° C.), more than 50 µg/mL; in data set [2] it was more than 50 µg/mL; in data set [3], 0.5 µg/mL; in data set [4], 0.5 µg/mL; in data set [5], 1 µg/mL.
As to `N=C1N[C@@H](Cc2ccccc2)CN1CC(=O)Nc1cccc(NC(=O)CN2C[C@H](Cc3ccccc3)NC2=N)c1` [Compound 2], the MIC (in the data set with E. coli (ATCC 25922); in data set [3]) was more than 25 µg/mL each time.
`N=C1N(CC(=O)Nc2ccc(NC(=O)CN3C[C@H](Cc4ccccc4)N(CCCC4CCCCC4)C3=N)cc2)C[C@H](Cc2ccccc2)N1CCCC1CCCCC1` [Compound 19]: the MIC in the data set with E. coli (ATCC 25922) is 12 µg/mL; in data set [1] (Gram −, 16 h, 37° C.), more than 25 µg/mL; in data set [2] it was 1.5 to 3 µg/mL; in data set [3], 0.75 µg/mL; in data set [4], 0.33 µg/mL; in data set [5], 0.75 µg/mL. The “Hemolysis (HC50)” value in data set [6] is 5 µg/mL.
`N=C1N(CC(=O)NCCCCCCNC(=O)CN2C[C@H](Cc3ccccc3)N(CCCc3ccccc3)C2=N)C[C@H](Cc2ccccc2)N1CCCc1ccccc1` [Compound 9]: the MIC in the data set with E. coli (ATCC 25922) is 3 to 6 µg/mL; in data set [1] (Gram −, 16 h, 37° C.), more than 25 µg/mL; in data set [2] it was 3 to 6 µg/mL; in data set [3], 0.75 µg/mL; in data set [4], 0.75 to 1.5 µg/mL; in data set [5] it was 1.5 to 3 µg/mL. Besides, the “activity against P. aeruginosa (in words)” value in data set [1] is given as “not active”. In data set [6], the “Hemolysis (HC50)” value is 100 µg/mL. In addition, in data set [6] (text b247, unit as printed), the HC50 came to 100 µg/mL.
As for `CCN1C(=N)N(CC(=O)Nc2cccc(NC(=O)CN3C[C@H](Cc4ccccc4)N(CC)C3=N)c2)C[C@@H]1Cc1ccccc1` [Compound 4], the MIC is 3 µg/mL in the data set on E. coli (ATCC 25922); more than 25 µg/mL in data set [1] (Gram −, 16 h, 37° C.); more than 25 µg/mL in data set [2]; 6 to 12 µg/mL in data set [3]; more than 25 µg/mL in data set [4]; more than 25 µg/mL in data set [5]. The “MIC E. coli” value in the data set on E. coli (ATCC 25922) is 3.0 µg/mL. Besides, the “MIC MRSA” value in data set [3] is on record as 6~12 μg/mL.
`CCCCCCCCN1C(=N)N(CC(=O)Nc2ccc(NC(=O)CN3C[C@H](Cc4ccccc4)N(CCCCCCCC)C3=N)cc2)C[C@@H]1Cc1ccccc1` [Compound 17]: the MIC is more than 25 µg/mL in the data set on E. coli (ATCC 25922) and 1.5 µg/mL in data set [3]. The “antibacterial activity against the tested bacteria (in words)” value (from here on “antibacterial activity”) in data set [7] is “decreased activity”.
The corresponding values for `N#CNc1cccc(NC(=O)CN2C[C@H](Cc3ccccc3)N(CCCc3ccccc3)C2=N)c1` [Compound 7] are more than 25 µg/mL, 12 to 25 µg/mL and “negligible activity”.
With Colistin [reference compound], the “MIC E. coli” value in the data set on E. coli (ATCC 25922) is 0.5 µg/mL. Also, in data set [1] (Gram −, 16 h, 37° C.), the “MIC P. aeruginosa” value turned out to be 1.0 µg/mL. Also, the “MIC K. pneumoniae” value in data set [2] is 0.5 µg/mL. In data set [3], the “MIC MRSA” value was more than 50 µg/mL. Besides, the “MIC MRSE” value in data set [4] is more than 50 µg/mL. The “MIC VRE” value in data set [5] was more than 50 µg/mL.
Consider `CCCCCCN1C(=N)N(CC(=O)Nc2cccc(NC(=O)CN3C[C@H](CC(C)C)N(CCCCCC)C3=N)c2)C[C@@H]1CC(C)C` [Compound 23], for which the MIC in the data set on E. coli (ATCC 25922) is 1.5 to 3 µg/mL; in data set [1] (Gram −, 16 h, 37° C.), 6 to 12 µg/mL; in data set [2], 0.75 µg/mL; in data set [3] it was 1.5 µg/mL; in data set [4] it was 1.5 µg/mL; in data set [5], 0.75 µg/mL. Moreover, in data set [6], the “Hemolysis (HC50)” value was 200 µg/mL.
For the compound `N=C1N(CC(=O)Nc2ccc(-c3ccc(NC(=O)CN4C[C@H](Cc5ccccc5)N(CCCc5ccccc5)C4=N)cc3)cc2)C[C@H](Cc2ccccc2)N1CCCc1ccccc1` [Compound 10], the MIC (with E. coli (ATCC 25922); in data set [3]) was more than 25 µg/mL throughout. In addition, the “antibacterial activity” value in data set [7] is “not active”.
Take `N=C1N(CC(=O)Nc2cccc(NC(=O)CN3C[C@H](Cc4ccccc4)N(CCCC4CCCCC4)C3=N)c2)C[C@H](Cc2ccccc2)N1CCCC1CCCCC1` [Compound 20]: the MIC in the data set with E. coli (ATCC 25922) was 12 µg/mL; in data set [1] (Gram −, 16 h, 37° C.), more than 25 µg/mL; in data set [2], 1.5 to 3 µg/mL; in data set [3], 0.325 µg/mL; in data set [4], 0.33 µg/mL; in data set [5], 1.5 µg/mL. The “Hemolysis (HC50)” value in data set [6] is 26 µg/mL.
For `CCCCCCN1C(=N)N(CC(=O)NCCCCNC(=O)CN2C[C@H](Cc3ccccc3)N(CCCCCC)C2=N)C[C@@H]1Cc1ccccc1` [Compound 13], the MIC in the data set on E. coli (ATCC 25922) was 1.5 µg/mL; in data set [1] (Gram −, 16 h, 37° C.), more than 25 µg/mL; in data set [2] it was 6 to 12 µg/mL; in data set [3] it was 0.75 µg/mL; in data set [4], 1.5 µg/mL; in data set [5] it was 3 to 6 µg/mL. In addition, the “activity against P. aeruginosa (in words)” value in data set [1] is “reduced activity”. The “Hemolysis (HC50)” value in data set [6] is more than 250 µg/mL.
On to `N=C1N(CC(=O)Nc2ccc(NC(=O)CN3C[C@H](Cc4ccccc4)N(CCC45CC6CC(CC(C6)C4)C5)C3=N)cc2)C[C@H](Cc2ccccc2)N1CCC12CC3CC(CC(C3)C1)C2` [Compound 21], for which the MIC in the data set on E. coli (ATCC 25922) is more than 25 µg/mL; in data set [3], 6 µg/mL.
On to `CCCCCCN1C(=N)N(CC(=O)NCCCCCCNC(=O)CN2C[C@H](Cc3ccccc3)N(CCCCCC)C2=N)C[C@@H]1Cc1ccccc1` [Compound 14], for which the MIC is 1.5 µg/mL with E. coli (ATCC 25922); more than 25 µg/mL in data set [1] (Gram −, 16 h, 37° C.); 3 to 6 µg/mL in data set [2]; 0.325 µg/mL in data set [3]; 0.75 µg/mL in data set [4]; 1.5 µg/mL in data set [5]. The “activity against P. aeruginosa (in words)” value in data set [1] is listed as “reduced activity”. The “Hemolysis (HC50)” value in data set [6] was more than 250 µg/mL.
Take `N=C1N(CC(=O)Nc2cccc(NC(=O)CN3C[C@H](Cc4ccccc4)N(CCC45CC6CC(CC(C6)C4)C5)C3=N)c2)C[C@H](Cc2ccccc2)N1CCC12CC3CC(CC(C3)C1)C2` [Compound 22]: the MIC with E. coli (ATCC 25922) is more than 25 µg/mL; in data set [3], 3 µg/mL.
For the compound `N=C1N(CC(=O)Nc2cccc(NC(N)=O)c2)C[C@H](Cc2ccccc2)N1CCCc1ccccc1` [Compound 8], the MIC was more than 25 µg/mL in the data set on E. coli (ATCC 25922) and 12 to 25 µg/mL in data set [3]. Moreover, in data set [7], the “antibacterial activity” value is recorded as “negligible activity”.
The corresponding values for `CCCCCCCCN1C(=N)N(CC(=O)Nc2cccc(NC(=O)CN3C[C@H](Cc4ccccc4)N(CCCCCCCC)C3=N)c2)C[C@@H]1Cc1ccccc1` [Compound 18] are more than 25 µg/mL, 1.5 µg/mL and “decreased activity”.
Take `CCN1C(=N)N(CC(=O)Nc2ccc(NC(=O)CN3C[C@H](Cc4ccccc4)N(CC)C3=N)cc2)C[C@@H]1Cc1ccccc1` [Compound 3]: the MIC in the data set on E. coli (ATCC 25922) is 1.5 µg/mL; in data set [1] (Gram −, 16 h, 37° C.), more than 25 µg/mL; in data set [2], more than 25 µg/mL; in data set [3], 6 to 12 µg/mL; in data set [4] it was more than 25 µg/mL; in data set [5] it was more than 25 µg/mL. In data set [3], the “MIC MRSA” value is reported as 6~12 μg/mL.
For the compound `CCCCCCN1C(=N)N(CC(=O)NCCCCCCCCNC(=O)CN2C[C@H](Cc3ccccc3)N(CCCCCC)C2=N)C[C@@H]1Cc1ccccc1` [Compound 15], the MIC with E. coli (ATCC 25922) was 0.75 to 1.5 µg/mL; in data set [1] (Gram −, 16 h, 37° C.), more than 25 µg/mL; in data set [2], 1.5 to 3 µg/mL; in data set [3], 0.75 µg/mL; in data set [4], 1.5 µg/mL; in data set [5], 0.325 µg/mL. Further, in data set [1], the “activity against P. aeruginosa (in words)” value was “reduced activity”. Besides, the “Hemolysis (HC50)” value in data set [6] was more than 250 µg/mL.
Take `N=C1N[C@@H](Cc2ccccc2)CN1CC(=O)NCCCCNC(=O)CN1C[C@H](Cc2ccccc2)NC1=N` [Compound 1]: the MIC (with E. coli (ATCC 25922); in data set [3]) was more than 25 µg/mL each time.

As a reminder, the MIC is the smallest concentration in the dilution series that meets the test's criterion for growth inhibition. The HC50 is the concentration that lyses half of the red blood cells.
